One may read the IC50 as the concentration at which inhibition is half-maximal.

Converted amounts (≈) assume the structure as drawn. The source made the active and inactive calls. The rule behind the calls is not given here.

For data set [1], the system named is SK-OV-3. The data set is described as follows: Cytotoxicity against human SKOV3 cells <=10 ug/ml after 2 to 7 days by neutral red assay. The format is functional, cell-based.
A further data set deals with Giardia intestinalis. The data set is described as follows: Antiparasitic activity against Giardia intestinalis ATCC 30888 at <=20 ug/ml after 24 hrs by XTT assay. The format is functional, organism-based. The settings on record: Giardia duodenalis.
Data set [2] deals with Vero. The experiment in a line: Cytotoxicity against african green monkey Vero cells <=10 ug/ml after 2 to 7 days by neutral red assay. The format is cell-based. The settings on record: chlorocebus sabaeus.
For data set [3], the system named is KB. The experiment in a line: Cytotoxicity against human KB cells <=10 ug/ml after 2 to 7 days by neutral red assay. It counts as functional, cell-based.
The test system of data set [4] is BT-549. The data set is described as follows: Cytotoxicity against human BT549 cells <=10 ug/ml after 2 to 7 days by neutral red assay. The format is functional, cell-based.
The subject of data set [5] is K562. The experiment in a line: Cytotoxicity against human K562 cells at <=10 ug/ml after 2 to 7 days by neutral red assay. The format is functional, cell-based.
A further data set has as its system Crithidia fasciculata. The experiment in a line: Trypanocidal activity against Crithidia fasciculata ATCC 11745 at <=20 ug/ml after 48 hrs by SRB assay. It counts as functional, organism-based. Background: The SRB assay estimates cell density from bound dye.
In data set [6] the test system is Plasmodium falciparum. The data set is described as follows: Antimalarial activity against chloroquine-resistant Plasmodium falciparum W2 after 48 hrs as LDH activity by Makler assay. The format is functional, organism-based. Particulars: W2, 48 h.
The test system of data set [7] is Plasmodium falciparum. The data set is described as follows: Antimalarial activity against chloroquine-sensitive Plasmodium falciparum D6 after 48 hrs as LDH activity by Makler assay. It counts as functional, organism-based. The settings on record: D6, 48 h.
For data set [8], the system named is Plasmodium falciparum. The data set is described as follows: Antimalarial activity against chloroquine-sensitive Plasmodium falciparum D6 at <=10 ug/ml after 48 hrs as LDH activity by Makler assay. The format is functional, organism-based.
For data set [9], the system named is Plasmodium falciparum. The data set is described as follows: Antimalarial activity against chloroquine-resistant Plasmodium falciparum W2 at <=10 ug/ml after 48 hrs as LDH activity by Makler assay. It counts as functional, organism-based.
The subject of data set [10] is K562. The data set is described as follows: Cytotoxicity against human K562 cells after 2 to 7 days by neutral red assay. The format is functional, cell-based.
The test system of data set [11] is BT-549. The experiment in a line: Cytotoxicity against human BT549 cells after 2 to 7 days by neutral red assay. The format is functional, cell-based.
Data set [12] deals with KB. The experiment in a line: Cytotoxicity against human KB cells after 2 to 7 days by neutral red assay. The format is functional, cell-based.
Data set [13] relates to Vero. The experiment in a line: Cytotoxicity against african green monkey Vero cells after 2 to 7 days by neutral red assay. The settings on record: chlorocebus sabaeus. The format is cell-based.
Data set [14] relates to SK-OV-3. The experiment in a line: Cytotoxicity against human SKOV3 cells after 2 to 7 days by neutral red assay. It counts as functional, cell-based.

Turning to `C[C@@H]1C[C@H](O)C(=O)[C@]2(C)[C@H]3[C@H](OC(=O)/C=C/c4ccc(O)cc4)C(=O)[C@H](C)[C@@H]4CC(=O)O[C@H](C[C@@H]12)[C@]34C`, the outcome in the data set on SK-OV-3 [1], in the data set with Giardia intestinalis, in the data set on KB [3], in the data set with BT-549 [4], with K562 [5] and with Crithidia fasciculata was inactive. Moreover, in the data set with Vero [2], the Activity result is on record as “Not Active”. The figures for the 50% inhibitory concentration (IC50) with Plasmodium falciparum [6] and with Plasmodium falciparum [7] were 0.75 µg/mL (≈ 1.47 µM) and 0.92 µg/mL (≈ 1.8 µM), respectively.
For `CC1=C[C@H](O)[C@@H](O)[C@]2(C)[C@H]3[C@]4(O)OC[C@]35[C@H]([C@@H](C)[C@H]4O)[C@@H](O[C@@H]3O[C@H](CO)[C@@H](O)[C@H](O)[C@H]3O)C(=O)O[C@@H]5C[C@@H]12`, the outcome with Plasmodium falciparum [8], with SK-OV-3 [1], in the data set on Plasmodium falciparum [9], with KB [3], with BT-549 [4] and in the data set on K562 [5] was inactive. Moreover, the Activity entry with Vero [2] is on record as “Not Active”.
With `C[C@@H]1C[C@H](O)C(=O)[C@]2(C)[C@H]3[C@H](O)C(=O)[C@H](C)[C@@H]4CC(=O)O[C@H](C[C@@H]12)[C@]34C` [AMAROLIDE], the result in the data set on Plasmodium falciparum [8], in the data set on SK-OV-3 [1], with Plasmodium falciparum [9], in the data set with KB [3], in the data set with BT-549 [4] and in the data set on K562 [5] was inactive. For the same compound, the Activity result in the data set with Vero [2] is listed as “Not Active”.
Turning to `CC1=CC(=O)[C@@H](O)[C@]2(C)[C@H]3[C@@]4(O)OC[C@@]35[C@@H](C[C@@H]12)OC(=O)C[C@H]5[C@@H](C)[C@H]4O` [CHAPARRINONE], the IC50 is 1.8 µg/mL (≈ 4.76 µM) in the data set with K562 [10]; 0.8 µg/mL (≈ 2.11 µM) with BT-549 [11]; 1.2 µg/mL (≈ 3.17 µM) in the data set on KB [12]; 1.5 µg/mL (≈ 3.96 µM) with Vero [13]; 0.5 µg/mL (≈ 1.32 µM) in the data set on SK-OV-3 [14]; 0.2 µg/mL (≈ 0.529 µM) with Plasmodium falciparum [6]. In the data set on Plasmodium falciparum [7], this compound had a half-inhibitory concentration (IC50) of 0.25 µg/mL (≈ 0.661 µM).
With `CC1=C[C@H](O)[C@@H](O)[C@]2(C)[C@H]3[C@@]4(O)OC[C@@]35[C@@H](C[C@@H]12)OC(=O)C[C@H]5[C@@H](C)[C@H]4O` [CHAPARRIN], the outcome in the data set on SK-OV-3 [1], in the data set on KB [3], in the data set with BT-549 [4] and with K562 [5] was inactive. For the same compound, in the data set with Vero [2], the Activity result is recorded as “Not Active”. Besides, the IC50 was 0.35 µg/mL (≈ 0.92 µM) in the data set with Plasmodium falciparum [6] and 0.25 µg/mL (≈ 0.657 µM) in the data set on Plasmodium falciparum [7].
For `COc1cccc2c1C(=O)c1c(O)c3c(c(O)c1C2=O)C[C@@](O)(C(=O)CO)C[C@@H]3O[C@H]1C[C@H](N)[C@H](O)[C@H](C)O1` [DOXORUBICIN], the IC50 in the data set with K562 [10] is 0.035 µg/mL (≈ 0.0644 µM); in the data set with BT-549 [11] it was 0.008 µg/mL (≈ 0.0147 µM); in the data set with KB [12] it was 0.12 µg/mL (≈ 0.221 µM); in the data set with Vero [13], 1.5 µg/mL (≈ 2.76 µM); in the data set with SK-OV-3 [14] it was 0.01 µg/mL (≈ 0.0184 µM).
Take `CC1=CC(=O)[C@@H](O)[C@]2(C)[C@H]3[C@]4(O)OC[C@]35[C@H]([C@@H](C)[C@H]4O)[C@@H](O)C(=O)O[C@@H]5C[C@@H]12` [GLAUCARUBOLONE]: the concentration for half-maximal inhibition (IC50) in the data set on K562 [10] is 0.6 µg/mL (≈ 1.52 µM); in the data set with BT-549 [11] it was 0.4 µg/mL (≈ 1.01 µM); with KB [12] it was 1 µg/mL (≈ 2.54 µM); in the data set with Vero [13], 1.5 µg/mL (≈ 3.8 µM); in the data set with SK-OV-3 [14] it was 0.8 µg/mL (≈ 2.03 µM); in the data set on Plasmodium falciparum [6], 0.2 µg/mL (≈ 0.507 µM). Besides, half-maximal inhibition with Plasmodium falciparum [7] (IC50) was put at 0.125 µg/mL (≈ 0.317 µM).
For the compound `CC(=O)O[C@H]1C(=O)O[C@@H]2C[C@H]3C(C)=CC(=O)[C@@H](O)[C@]3(C)[C@H]3[C@]4(O)OC[C@]32[C@@H]1[C@@H](C)[C@H]4O` [HOLACANTHONE], the half-inhibitory concentration (IC50) in the data set on K562 [10] came to 1 µg/mL (≈ 2.29 µM); in the data set on BT-549 [11], 0.3 µg/mL (≈ 0.687 µM); in the data set with KB [12], 0.5 µg/mL (≈ 1.15 µM); in the data set on Vero [13], 1 µg/mL (≈ 2.29 µM); in the data set with SK-OV-3 [14], 0.5 µg/mL (≈ 1.15 µM); in the data set with Plasmodium falciparum [6], 0.012 µg/mL (≈ 0.0275 µM). In the data set with Plasmodium falciparum [7], inhibition was half-maximal at 0.01 µg/mL (≈ 0.0229 µM) (IC50).

Values taken from ChEMBL document CHEMBL1151670, “A new quassinoid from Castela texana” (J Nat Prod, 1996).
